According to patent publication US20240383908A1, “SYNTHESIS AND APPLICATION OF PHOSPHATASE DEGRADER” (HINOVA PHARMACEUTICALS INC., priority 2021, published 2024):

Biological target: T1, SHP2 protein (Homo sapiens, UniProt Q06124)
T1 sequence (Q06124 1-593): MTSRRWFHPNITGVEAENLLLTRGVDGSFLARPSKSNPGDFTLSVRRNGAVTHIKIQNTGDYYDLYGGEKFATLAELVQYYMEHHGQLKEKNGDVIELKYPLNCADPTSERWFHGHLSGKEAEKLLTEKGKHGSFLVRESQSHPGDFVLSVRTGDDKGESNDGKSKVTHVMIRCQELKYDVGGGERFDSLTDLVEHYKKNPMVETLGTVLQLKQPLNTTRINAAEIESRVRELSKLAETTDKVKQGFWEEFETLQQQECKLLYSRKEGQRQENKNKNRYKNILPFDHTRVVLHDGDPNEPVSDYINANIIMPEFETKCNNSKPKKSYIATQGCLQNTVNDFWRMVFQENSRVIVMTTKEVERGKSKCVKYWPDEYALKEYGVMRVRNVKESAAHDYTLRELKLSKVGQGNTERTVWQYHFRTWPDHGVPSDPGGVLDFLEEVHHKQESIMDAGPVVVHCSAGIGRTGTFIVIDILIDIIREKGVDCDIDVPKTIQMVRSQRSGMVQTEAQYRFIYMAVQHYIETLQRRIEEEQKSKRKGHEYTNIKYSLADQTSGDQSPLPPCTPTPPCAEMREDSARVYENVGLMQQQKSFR
Assay: Degradation activity on SHP2 protein in MV-411 cells (Western blot, DC50)
Format: cell-based
Set-up: endogenous in cells
Details: MV411 cells, 24 hours, read-out: Degradation activity for differenct cell lines MV411 (DC50)
In short: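 MV-411 cells (1×10^6 cells/well, IMDM + 10% FBS) were treated 24 h with compound at 0.1-100 nM final, 0.1% DMSO, duplicates. SHP2 measured by Western blot against GAPDH, band density normalised to DMSO control; DC50 from dose-response fit.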

DC50 [µM]	Compound
< 0.1	C[C@@H]1OCC2(CCN(c3cnc(Sc4cccc(NC(=O)CCN5CC6(CCN(c7ccc(COc8cccc9c8CN(C8CCC(=O)NC8=O)C9=O)nn7)C6)C5)c4)cn3)CC2)[C@@H]1N (stereo partly drawn) [Compound 132]
< 0.1	Cc1ncsc1-c1ccc([C@H](C)NC(=O)[C@@H]2C[C@@H](O)CN2C(=O)[C@@H](NC(=O)c2cnc(N3CC[C@@H](OCCCCCCCC(=O)Nc4cccc(Sc5cnc(N6CCC(C)(N)CC6)cn5)c4)C3)nc2)C(C)(C)C)cc1 [Compound 103]
> 1	CC1(N)CCN(c2cnc(Sc3cccc(NC(=O)CCCCCCCOC4CCN(c5ncc(C(=O)Nc6cccc7c6CN(C6CCC(=O)NC6=O)C7=O)cn5)CC4)c3)cn2)CC1 (stereo not drawn) [Compound 92]
0.1 to 1	CC1(N)CCN(c2cnc(Sc3cccc(NC(=O)COCCOCCOCCOCC(=O)Nc4ccc5c(c4)C(=O)N(C4CCC(=O)NC4=O)C5)c3)cn2)CC1 (stereo not drawn) [Compound 4]
> 1	CC1(N)CCN(c2cnc(Sc3cccc(NC(=O)CCCCCCC(=O)N4CC5(CN(C(=O)/C=C/C(=O)NCc6ccc7c(c6)CN(C6CCC(=O)NC6=O)C7=O)C5)C4)c3)cn2)CC1 (stereo not drawn) [Compound 125]
> 1	CC1(N)CCN(c2cnc(Sc3cccc(NC(=O)CCCN4CCN(c5ncc(C(=O)NCc6ccc7c(c6)CN(C6CCC(=O)NC6=O)C7=O)cn5)CC4)c3)cn2)CC1 (stereo not drawn) [Compound 83]
< 0.1	CC1(N)CCN(c2cnc(Sc3cccc(NC(=O)[C@@H]4C[C@H]4C(=O)N4CC5(CN(CCCCCCCC(=O)NCc6ccc7c(c6)CN(C6CCC(=O)NC6=O)C7=O)C5)C4)c3)cn2)CC1 (stereo partly drawn) [Compound 38]
> 1	CC1(N)CCN(c2cnc(Sc3cccc(NC(=O)CCC(=O)NCCOCCOCC(=O)Nc4ccc5c(c4)CN(C4CCC(=O)NC4=O)C5=O)c3)cn2)CC1 (stereo not drawn) [Compound 30]
> 1	N[C@H]1CCN(c2cnc(Sc3cccc(NC(=O)CCCCCCN4CC5(CCN(c6ccc(C(=O)NCc7ccc8c(c7)CN(C7CCC(=O)NC7=O)C8=O)nn6)C5)C4)c3)cn2)C[C@@H]1O (stereo partly drawn) [Compound 197]
< 0.1	Cc1ncsc1-c1ccc([C@H](C)NC(=O)[C@@H]2C[C@@H](O)CN2C(=O)[C@@H](NC(=O)CCCCCCCCC(=O)Nc2cccc(Sc3cnc(N4CCC(C)(N)CC4)cn3)c2)C(C)(C)C)cc1 [Compound 52]
< 0.1	CC1(N)CCN(c2cnc(Sc3cccc(NC(=O)CCCCN4CC5(CCN(c6ncc(C(=O)NCc7ccc8c(c7)CN(C7CCC(=O)NC7=O)C8=O)cn6)C5)C4)c3)cn2)CC1 (stereo not drawn) [Compound 89]
> 1	CC1(N)CCN(c2cnc(Sc3cccc(NC(=O)COCCOCCOCCOCC(=O)Nc4cccc5c4CN(C4CCC(=O)NC4=O)C5=O)c3)cn2)CC1 (stereo not drawn) [Compound 17]
> 1	CC1(N)CCN(c2cnc(Sc3cccc(NC(=O)CCN4CCN(Cc5ccc(COc6cccc7c6CN(C6CCC(=O)NC6=O)C7=O)cc5)CC4)c3)cn2)CC1 (stereo not drawn) [Compound 84]
> 1	CC1(N)CCN(c2cnc(Sc3cccc(NC(=O)CCN4CC5(CCN(Cc6ccc(COc7cccc8c7CN(C7CCC(=O)NC7=O)C8=O)cc6)C5)C4)c3)cn2)CC1 (stereo not drawn) [Compound 69]
> 1	CC1(N)CCN(c2cnc(Sc3cccc(NC(=O)CCCCCCCCCCCCC(=O)NCc4ccc5c(c4)CN(C4CCC(=O)NC4=O)C5=O)c3)cn2)CC1 (stereo not drawn) [Compound 41]
> 1	CC1(N)CCN(c2cnc(Sc3cccc(NC(=O)[C@H]4CCC[C@@H]4C(=O)N4CCN(CCCCCCCCC(=O)NCc5ccc6c(c5)CN(C5CCC(=O)NC5=O)C6=O)CC4)c3)cn2)CC1 (stereo partly drawn) [Compound 25]
> 1	CC1(N)CCN(c2cnc(Sc3cccc(NC(=O)CCCCCCN4CC5(CCN(C(=O)/C=C/C(=O)NCc6ccc7c(c6)CN(C6CCC(=O)NC6=O)C7=O)C5)C4)c3)cn2)CC1 (stereo not drawn) [Compound 117]
> 1	NC1(CF)CCN(c2cnc(Sc3ccc(NC(=O)CCCCN4CC5(CCN(c6ncc(C(=O)NCc7ccc8c(c7)CN(C7CCC(=O)NC7=O)C8=O)cn6)C5)C4)cc3)cn2)CC1 (stereo not drawn) [Compound 129]
0.1 to 1	CC1(N)CCN(c2cnc(Sc3cccc(NC(=O)CCCCCCN4CC5(CCN(C6CCC(C(=O)NCc7ccc8c(c7)CN(C7CCC(=O)NC7=O)C8=O)CC6)C5)C4)c3)cn2)CC1 (stereo not drawn) [Compound 158, 4-(2-(7-((3-((5-(4-amino-4-methylpyridin-1-yl)pyrazin-2-yl)thio)phenyl)amino)-7-oxoheptyl)-2,6-diazaspiro[3.4]octan6-yl)-N-((2-(2,6-dioxopiperidin-3-yl)-1-oxoisoindol-5-yl)methyl)cyclohexane-1-formamide]

DC50 [µM]	Compound
< 0.1	Cc1ncsc1-c1ccc([C@H](C)NC(=O)[C@@H]2C[C@@H](O)CN2C(=O)[C@@H](NC(=O)CCCCCCCCCCC(=O)Nc2cccc(Sc3cnc(N4CCC(C)(N)CC4)cn3)c2)C(C)(C)C)cc1 [Compound 49]
< 0.1	Cc1ncsc1-c1ccc([C@H](C)NC(=O)[C@@H]2C[C@@H](O)CN2C(=O)[C@@H](NC(=O)c2cnc(N3CCN(CCCCCCCC(=O)Nc4cccc(Sc5cnc(N6CCC(C)(N)CC6)cn5)c4)CC3)nc2)C(C)(C)C)cc1 [Compound 73]
< 0.1	C[C@@H]1OCC2(CCN(c3cnc(Sc4cccc(NC(=O)CCN5CC6(CCN(c7ccc(C(=O)NCc8ccc9c(c8)CN(C8CCC(=O)NC8=O)C9=O)nn7)C6)C5)c4)cn3)CC2)[C@@H]1N (stereo partly drawn) [Compound 108]
> 1	NC1(CF)CCN(c2cnc(Sc3cccc(NC(=O)CCCCN4CC5(CCN(c6ccc(C(=O)NCc7ccc8c(c7)CN(C7CCC(=O)NC7=O)C8=O)nn6)C5)C4)c3)cn2)CC1 (stereo not drawn) [Compound 137]
< 0.1	CC1(N)CCN(c2cnc(Sc3cccc(NC(=O)CCCCCCOC4CN(c5ncc(C(=O)NCc6ccc7c(c6)CN(C6CCC(=O)NC6=O)C7=O)cn5)C4)c3)cn2)CC1 (stereo not drawn) [Compound 87]
< 0.1	Cc1ncsc1-c1ccc([C@H](C)NC(=O)[C@@H]2C[C@@H](O)CN2C(=O)[C@@H](NC(=O)CCCCCCCCN2CCN(C(=O)C3CC3C(=O)Nc3cccc(Sc4cnc(N5CCC(C)(N)CC5)cn4)c3)CC2)C(C)(C)C)cc1 (stereo partly drawn) [Compound 77]
0.1 to 1	Cc1ncsc1-c1ccc([C@H](C)NC(=O)[C@@H]2C[C@@H](O)CN2C(=O)[C@@H](NC(=O)COCCOCCOCCOCC(=O)Nc2ccc(Sc3cnc(N4CCC(C)(CN)CC4)cn3)c(Cl)c2)C(C)(C)C)cc1 [Compound 7]
> 1	Cc1ncsc1-c1ccc([C@H](C)NC(=O)[C@@H]2C[C@@H](O)CN2C(=O)[C@@H](NC(=O)/C=C/C(=O)N2CCC3(CN(CCCCCCC(=O)Nc4cccc(Sc5cnc(N6CCC(C)(N)CC6)cn5)c4)C3)C2)C(C)(C)C)cc1 [Compound 116]
0.1 to 1	CC1(N)CCN(c2cnc(Sc3cccc(NC(=O)CCCCCCN4CC5(CCN(C(=O)[C@@H]6C[C@H]6C(=O)NCc6ccc7c(c6)CN(C6CCC(=O)NC6=O)C7=O)C5)C4)c3)cn2)CC1 (stereo partly drawn) [Compound 127]
< 0.1	CN(Cc1ccc2c(c1)CN(C1CCC(=O)NC1=O)C2=O)C(=O)c1ccc(N2CCC3(CN(CCCCCC(=O)Nc4cccc(Sc5cnc(N6CCC(C)(N)CC6)cn5)c4)C3)C2)nn1 (stereo not drawn) [Compound 165]
< 0.1	NC1(CF)CCN(c2cnc(Sc3cccc(NC(=O)CCCCCCCO[C@H]4CCN(c5ccc(C(=O)NCc6ccc7c(c6)CN(C6CCC(=O)NC6=O)C7=O)nn5)C4)c3)cn2)CC1 (stereo partly drawn) [Compound 135]
< 0.1	CN(Cc1ccc2c(c1)CN(C1CCC(=O)NC1=O)C2=O)C(=O)c1cnc(N2CCC3(CN(CCCCCCC(=O)Nc4cccc(Sc5cnc(N6CCC(C)(N)CC6)cn5)c4)C3)C2)cn1 (stereo not drawn) [Compound 180]
0.1 to 1	CC1(N)CCN(c2cnc(Sc3cccc(NC(=O)CCCCCC(=O)N4CC5(CCN(C(=O)[C@@H]6C[C@H]6C(=O)NCc6ccc7c(c6)CN(C6CCC(=O)NC6=O)C7=O)C5)C4)c3)cn2)CC1 (stereo partly drawn) [Compound 131]
> 1	CC1(N)CCN(c2cnc(Sc3cccc(NC(=O)CCCCCCCCCC(=O)NCc4ccc5c(c4)CN(C4CCC(=O)NC4=O)C5=O)c3)cn2)CC1 (stereo not drawn) [Compound 57]
> 1	N[C@H]1CCN(c2cnc(Sc3cccc(NC(=O)CCCCCN4CC5(CCN(c6ccc(C(=O)NCc7ccc8c(c7)CN(C7CCC(=O)NC7=O)C8=O)nn6)C5)C4)c3)cn2)C[C@@H]1O (stereo partly drawn) [Compound 196]
> 1	Cc1ncsc1-c1ccc([C@H](C)NC(=O)[C@@H]2C[C@@H](O)CN2C(=O)[C@@H](NC(=O)CCCCCCCCCC(=O)Nc2cccc(Sc3cnc(N4CCC(C)(N)CC4)cn3)c2)C(C)(C)C)cc1 [Compound 56]
> 1	Cc1ncsc1-c1ccc([C@H](C)NC(=O)[C@@H]2C[C@@H](O)CN2C(=O)[C@@H](NC(=O)c2cnc(N3CCN(CCCCCCCCC(=O)Nc4cccc(Sc5cnc(N6CCC(C)(C(N)=O)CC6)cn5)c4)CC3)nc2)C(C)(C)C)cc1 [Compound 60]
> 1	NC1CN(c2cnc(Sc3cccc(NC(=O)CCCCCCN4CC5(CCN(c6ccc(C(=O)NCc7ccc8c(c7)CN(C7CCC(=O)NC7=O)C8=O)nn6)C5)C4)c3)cn2)CC1O (stereo not drawn) [Compound 206]
> 1	CC1(N)CCN(c2cnc(Sc3cccc(NC(=O)COCCOCCOCCOCC(=O)Nc4ccc5c(c4)CN(C4CCC(=O)NC4=O)C5=O)c3)cn2)CC1 (stereo not drawn) [Compound 18]

Compound	DC50 [µM]
CN[C@H](C)C(=O)N[C@@H](C(=O)N1C[C@@H](NC(=O)c2ccc(N3CC4CCC(C3)N4CCCCCCCCC(=O)Nc3cccc(Sc4cnc(N5CCC(N)C(F)C5)cn4)c3)nn2)C[C@@H]1C(=O)Nc1c(F)cccc1F)C(C)(C)C (stereo partly drawn) [Compound 142]	> 1
